{
  "source": "ChEMBL document CHEMBL3785028",
  "about": "(J Med Chem, 2016)",
  "type_in_all_cases": "ADME, organism-based",
  "settings_in_all_cases": "in vivo",
  "key": {"[1]": {"assay": "Clearance in rat at 1 mg/kg, iv"}, "[2]": {"assay": "AUC(0 to infinity) in mouse at 30 mg/kg, po", "set-up": "dose 30 mg/kg, route oral, time infinity"}, "[3]": {"assay": "Volume of distribution in rat at 1 mg/kg, iv"}, "[4]": {"assay": "Half life in mouse at 30 mg/kg, po"}, "[5]": {"assay": "Oral bioavailability in rat at 2 mg/kg"}, "[6]": {"assay": "Half life in rat at 1 mg/kg, iv"}, "[7]": {"assay": "Half life in rat at 2 mg/kg, po"}, "[8]": {"assay": "Cmax in rat at 2 mg/kg, po", "set-up": "dose 2 mg/kg, route oral"}, "[9]": {"assay": "AUC in rat at 2 mg/kg, po"}},
  "data": [
    {"smiles": "CN1C(=O)[C@@H](NC(=O)c2cc(Cc3ccccc3)on2)CNc2ccccc21", "values": [
      {"measurement": "clearance", "setting": "[1]", "value": 57, "unit": "mL/min/kg"},
      {"measurement": "AUC(0-inf)", "setting": "[2]", "value": 2000, "unit": "ng·h/mL"},
      {"measurement": "Vd", "setting": "[3]", "value": 2.2, "unit": "L/kg"},
      {"measurement": "half-life", "setting": "[4]", "value": 1.5, "unit": "h"},
      {"measurement": "bioavailability", "setting": "[5]", "value": 75, "unit": "%"},
      {"measurement": "half-life", "setting": "[6]", "value": 0.85, "unit": "h"},
      {"measurement": "half-life", "setting": "[7]", "value": 1.9, "unit": "h"}
    ]},
    {"smiles": "O=C(N[C@H]1COc2ccccc2NC1=O)c1cc(Cc2ccccc2)on1", "values": [
      {"measurement": "Cmax", "setting": "[8]", "value": 810, "unit": "ng/mL"},
      {"measurement": "half-life", "setting": "[7]", "value": 2.9, "unit": "h"},
      {"measurement": "AUC", "setting": "[9]", "value": 2200, "unit": "ng·h/mL"}
    ]}
  ]
}
